The source of these data is patent US12569454B2, “Nucleophilic chemicals useful in the treatment of cisplatin-induced sensory neuropathy and ototoxicity” (MONTEFIORE MEDICAL CENTER, priority 2018, dated 2026).

For series [1] the following is noted: 400-600 mg/kg per day for 60 days; cited from earlier work.
The subject of series [2] is mouse. Briefly: Mouse studies: open field, balance beam, functional observational battery, treadmill. It is filed as in vivo. The conditions noted are these: open field observations, treadmill analysis.
The conditions of series [3]: acute animal toxicity; cited from earlier work.
Series [4] has as its system freshly isolated mouse hepatocytes. Kind of series: CisPt effect on cell viability with or without protectant. Format: cell-based. The following applies: co-administration with CisPt, FIG. 3B. The text has this: (§1) The enol compounds investigated in this study were gavinol, NAHA, and THA and as a point of comparison, the protective properties of thiol-based compounds, N-acetyl-L-cysteine (NAC) and sodium thiosulfate (STS), were also investigated.

Series [5] relates to neonatal rat DRG cells. Described as above. It is filed as cell-based. The conditions noted are these: co-administration with CisPt, FIG. 3A.
Source text: as §1

The test system of series [6] is osteosarcoma (HOS). Kind of series: CisPt-induced cancer cell lethality. Format: cell-based. The following applies: for effect on ability of CisPt to kill cancer cells (IC75): co-incubated with graded CisPt, FIG. 5C.
Series [7] can be described thus: pKa of nucleophilic carbon atoms. Format: physicochemical.
Series [8] deals with neuroblastoma (SH-SY5). Briefly: CisPt-induced cancer cell lethality. Format: cell-based.
The test system of series [9] is glioblastoma (U87 MG). Briefly: CisPt-induced cancer cell lethality. It is filed as cell-based.
The test system of series [10] is isolated mouse hepatocytes. Kind of series: Lethality of pre-formed enol-Pt complexes and Pt drugs. The conditions noted are these: 4 hours exposure. The method, then:
(§2) DRG cells and isolated mouse hepatocytes were then exposed to enol-Pt complexes for 4 hours and the respective changes in lethality were determined.

For series [11], the system named is DRG cells. The series is described as above. The conditions noted are these: 4 hours exposure. How it is done: as §2
Where [12] appears, read: complexes pre-incubated 30 mins.

Where only a bound is given, the exact number is not on record here.

As usually defined, the LD50 is the dose at which mortality reaches 50%. In the case of `CC(=O)C1CCCC1=O` (centres unmarked) [2-ACP, 2-acetylcyclopentanone], the systemic toxicity entry in series [1] is listed as “low incidence of systemic toxicity”. In addition, the “toxicity in mouse studies” value in series [2] was “not toxic”. The LD50 in series [3] is on record as more than 800 mg/kg.

For the compound `CC(=O)c1c(O)cc(NC(=O)C2CCCC2=O)cc1O` (centres unmarked) [gavinol, N-(4-acetyl-3,5-dihydroxyphenyl)-2-oxocyclopentane-1-carboxamide], the “protection against CisPt toxicity” value in series [4] and in series [5] was “substantial cryoprotection” throughout. Further, the “effect on ability of CisPt to kill cancer cells (IC75)” value (“effect on ability of CisPt” for short) in series [6] is recorded as “significantly lowered the respective IC75S”. Besides, the “toxicity in mouse studies” value in series [2] is on record as “not toxic”.

For `CC(=O)N[C@@H](CS)C(=O)O` [NAC, N-acetyl-L-cysteine, reference compound], the “protection against CisPt toxicity” value in series [4] and in [5] was “only modest protection” each time.

By pKa is commonly meant the pH at which an ionisable group is half protonated. Read a high pKa as a group that holds its proton tightly. For `CC(=O)Nc1cc(O)c(C(C)=O)c(O)c1` [NAHA, 4-N-acetyl-2,6-dihydroxyacetaphenone], the “protection against CisPt toxicity” value in series [4] and in series [5] was “substantial cryoprotection” each time. In addition, the “effect on ability of CisPt” value in series [6] is “significantly lowered the respective IC75S”. For the same compound, the pKa in [7] is on record as 7.9. The “toxicity in mouse studies” value in series [2] is “not toxic”.

For `CC(=O)c1c(O)cc(O)cc1O` [THA, 2′,4′,6′-trihydroxyacetophenone], the “protection against CisPt toxicity” value in [4] and in series [5] was “substantial cryoprotection” each time. Besides, the “toxicity in mouse studies” value in [2] is on record as “not toxic”.

On to `O=S([O-])([O-])=S.[Na+].[Na+]` [STS, sodium thiosulfate, reference compound], for which the “protection against CisPt toxicity” value in series [4] and in series [5] was “only modest protection” in each case. In addition, the “effect on ability of CisPt” value in series [6] is “did not modify CisPt-induced cancer cell toxicity”; in [8] (co-incubated with graded CisPt, FIG. 5A), “did not modify CisPt-induced cancer cell toxicity”; in series [9] (co-incubated with graded CisPt, FIG. 5B), “did not modify CisPt-induced cancer cell toxicity”.

With `N.N.O=C([O-])C1(C(=O)[O-])CCC1.[Pt+2]` [CarboPt, carboplatin], the “cytotoxicity relative to that caused by CisPt or OxaliPt” value in series [10] and in series [11] was “intermediate cytotoxicity” in each case. For the same compound, the “cytotoxicity (lethality)” value in series [10] (setting [12]) is “substantial concentration-dependent DRG and hepatocyte lethality”; in [11] (setting [12]), “substantial concentration-dependent DRG and hepatocyte lethality”. Moreover, the cancer cell lethality result in series [6] (FIG. 6B, compared with CisPt) is “reduced cancer cell lethality”; in series [8] (FIG. 6C, compared with CisPt) it was “reduced cancer cell lethality”; in series [9] (FIG. 6A, compared with CisPt) it was “reduced cancer cell lethality”.
